Experimental data published in ChEMBL document CHEMBL2034869, “Mapping pilicide anti-virulence effect in Escherichia coli, a comprehensive structure-activity study” (Bioorg Med Chem, 2012).

System: Escherichia coli
Assay: Inhibition of type-1 pili-dependent biofilm formation in Escherichia coli […]; call rule not given here
Assay type: functional, organism-based
[1] = Escherichia coli, UT189, read-out: EC50

Structure (SMILES)	EC50 [1]	EC50
O=C(O)[C@@H]1CSc2c(C3CC3)c(Cc3cccc4ccccc34)cc(=O)n21	250 µM	–
COc1ccc2c(Cc3cc(=O)n4c(c3C3CC3)SC[C@H]4C(=O)O)cc(=O)oc2c1	–	Not Active
Cc1cccc(CCc2cc(=O)n3c(c2-c2ccccc2)SC[C@H]3C(=O)O)c1	40 µM	–
Cc1cccc(OCc2cc(=O)n3c(c2-c2ccccc2)SC[C@H]3C(=O)O)c1C	36 µM	–
COc1ccc2c(Cc3cc(=O)n4c(c3-c3ccccc3)SC[C@H]4C(=O)O)cc(=O)oc2c1	–	Not Active
O=C([O-])[C@@H]1CSc2c(C3CC3)c(Cc3csc4ccccc34)cc(=O)n21.[Li+]	–	Not Active
O=C([O-])[C@@H]1CSc2c(C3CC3)c(Cn3nnc4ccccc43)cc(=O)n21.[Li+]	–	Not Active
Cc1cccc(CCc2cc(=O)n3c(c2C(C)C)SC[C@H]3C(=O)O)c1	100 µM	–
CC(C)c1c(Cn2nnc3ccccc32)cc(=O)n2c1SC[C@H]2C(=O)[O-].[Li+]	–	Not Active
CC(C)c1c(Cc2cccc3ccccc23)cc(=O)n2c1SC[C@H]2C(=O)O	100 µM	–
COc1ccc2c(Cc3cc(=O)n4c(c3-c3cccs3)SC[C@H]4C(=O)O)cc(=O)oc2c1	–	Not Active
O=C(O)[C@@H]1CSc2c(-c3cccs3)c(Cc3cccc4ccccc34)cc(=O)n21	39 µM	–
Cc1cccc(OCc2cc(=O)n3c(c2-c2ccc4c(c2)OCO4)SC[C@H]3C(=O)O)c1C	27 µM	–
O=C(O)[C@@H]1CSc2c(-c3ccc4c(c3)OCO4)c(Cc3csc4ccccc34)cc(=O)n21	67 µM	–
O=C(O)[C@@H]1CSc2c(-c3ccc4c(c3)OCO4)c(COc3cccc4ccccc34)cc(=O)n21	21 µM	–
Cc1cccc(CCc2cc(=O)n3c(c2-c2c[nH]c4ccccc24)SC[C@H]3C(=O)O)c1	74 µM	–
O=C(O)[C@@H]1CSc2c(-c3c[nH]c4ccccc34)c(Cc3ccc4c(c3)OCO4)cc(=O)n21	39 µM	–
Cc1cccc(OCc2cc(=O)n3c(c2-c2cccnc2)SC[C@H]3C(=O)[O-])c1C.[Li+]	–	Not Active
O=C([O-])[C@@H]1CSc2c(-c3cccnc3)c(Cn3nnc4ccccc43)cc(=O)n21.[Li+]	–	Not Active

Structure (SMILES)	EC50 [1]	EC50
O=C([O-])[C@@H]1CSc2c(-c3cccnc3)c(Cc3ccc4c(c3)OCO4)cc(=O)n21.[Li+]	–	Not Active
COc1c(Cc2csc3ccccc23)cc(=O)n2c1SC[C@H]2C(=O)[O-].[Li+]	–	Not Active
COc1c(Cc2cccc3ccccc23)cc(=O)n2c1SC[C@H]2C(=O)[O-].[Li+]	–	Not Active
COc1c(Cc2ccc3c(c2)OCO3)cc(=O)n2c1SC[C@H]2C(=O)O	–	Not Active
O=C(O)[C@@H]1CSc2c(-c3ccccc3)c(Cc3cccc4ccccc34)cc(=O)n21	40 µM	–
O=C(O)[C@@H]1CSc2c(-c3c[nH]c4ccccc34)c(Cc3cccc4ccccc34)cc(=O)n21	31 µM	–
O=C(O)[C@@H]1COc2c(-c3ccc4c(c3)OCO4)c(COc3cccc4ccccc34)cc(=O)n21	19 µM	–
O=C(O)[C@@H]1COc2c(-c3cccs3)c(Cc3cccc4ccccc34)cc(=O)n21	117 µM	–
O=C(O)[C@@H]1CSc2c(C3CC3)c(COc3cccc(Oc4ccccc4)c3)cc(=O)n21	39 µM	–
O=C([O-])[C@@H]1CSc2c(C3CC3)c(Cn3ccc4ccccc43)cc(=O)n21.[Li+]	–	Not Active
CO[C@H]1Sc2c(-c3ccc4c(c3)OCO4)c(COc3cccc4ccccc34)cc(=O)n2[C@@H]1C(=O)O	30 µM	–
CO[C@H]1Sc2c(-c3cccs3)c(Cc3cccc4ccccc34)cc(=O)n2[C@@H]1C(=O)O	92 µM	–
Cn1cc(-c2c(COc3cccc4ccccc34)c(CN3CCOCC3)c(=O)n3c2SC[C@H]3C(=O)O)c2ccccc21	18 µM	–
O=C(O)[C@@H]1CSc2c(-c3ccc4c(c3)OCO4)c(COc3cccc4ccccc34)c(CN3CCOCC3)c(=O)n21	32 µM	–
O=C(O)[C@@H]1CSc2c(-c3cccs3)c(Cc3cccc4ccccc34)c(CN3CCOCC3)c(=O)n21	88 µM	–
O=C(O)[C@@H]1CSc2c(-c3ccc4c(c3)OCO4)c(COc3cccc4ccccc34)c(CO)c(=O)n21	30 µM	–
O=C(O)[C@@H]1CSc2c(-c3cccs3)c(Cc3cccc4ccccc34)c(CO)c(=O)n21	250 µM	–
Cc1cccc(-c2sc3c(-c4cn(C)c5ccccc45)c(COc4cccc5ccccc45)cc(=O)n3c2C(=O)O)c1	86 µM	–
Cc1cccc(-c2sc3c(-c4ccc5c(c4)OCO5)c(COc4cccc5ccccc45)cc(=O)n3c2C(=O)O)c1	20 µM	–

Second part, the compound after the results:

EC50 [1]	EC50	Structure (SMILES)
14 µM	–	O=C(O)[C@@H]1CSc2c(-c3cccs3)c(COc3cccc4ccccc34)cc(=O)n21
12 µM	–	O=C(O)[C@@H]1CSc2c(-c3c[nH]c4ccccc34)c(COc3cccc4ccccc34)cc(=O)n21
1.9 µM	–	O=C(O)[C@@H]1CSc2c(-c3cccc(C(F)(F)F)c3)c(Cc3cccc(COc4cccc5ccccc45)c3)cc(=O)n21
1.4 µM	–	O=C(O)[C@@H]1CSc2c(C3CC3)c(Cc3cccc(COc4cccc5ccccc45)c3)cc(=O)n21
10 µM	–	Cn1cc(-c2c(COc3cccc4ccccc34)cc(=O)n3c2SC[C@H]3C(=O)O)c2ccccc21
9 µM	–	Cn1cc(-c2c(COc3cccc4ccccc34)cc(=O)n3c2SC[C@H]3C(=O)NS(C)(=O)=O)c2ccccc21
18 µM	–	Cn1cc(-c2c(COc3cccc4ccccc34)cc(=O)n3c2OC[C@H]3C(=O)O)c2ccccc21
1.1 µM	–	Cn1cc(-c2c(Cc3cccc(COc4cccc5ccccc45)c3)cc(=O)n3c2SC[C@H]3C(=O)O)c2ccccc21
3 µM	–	O=C(O)[C@@H]1CSc2c(-c3cccc(C(F)(F)F)c3)c(Cc3c4ccccc4cc4ccccc34)cc(=O)n21
2.1 µM	–	Cn1cc(-c2c(COc3cccc(Oc4ccccc4)c3)cc(=O)n3c2SC[C@H]3C(=O)O)c2ccccc21
4.3 µM	–	O=C(O)[C@@H]1CSc2c(-c3cccc(C(F)(F)F)c3)c(COc3cccc(Oc4ccccc4)c3)cc(=O)n21
1 µM	–	Cn1cc(-c2c(COc3cccc4ccccc34)cc(=O)n3c2S[C@H](c2ccccc2)[C@H]3C(=O)O)c2ccccc21
1.2 µM	–	O=C(O)[C@@H]1[C@@H](c2ccccc2)Sc2c(-c3ccc4c(c3)OCO4)c(COc3cccc4ccccc34)cc(=O)n21
0.4 µM	–	O=C(O)[C@@H]1[C@@H](c2ccccc2)Sc2c(-c3cccs3)c(Cc3cccc4ccccc34)cc(=O)n21
2.5 µM	–	CO[C@H]1Sc2c(-c3cn(C)c4ccccc34)c(COc3cccc4ccccc34)cc(=O)n2[C@@H]1C(=O)O
16 µM	–	Cn1cc(-c2c(COc3cccc4ccccc34)c(CO)c(=O)n3c2SC[C@H]3C(=O)O)c2ccccc21
5 µM	–	Cc1cccc(-c2sc3c(-c4cn(C)c5ccccc45)c(COc4cccc5ccccc45)c(CN4CCOCC4)c(=O)n3c2C(=O)O)c1
5 µM	–	Cc1cccc(-c2sc3c(-c4ccc5c(c4)OCO5)c(COc4cccc5ccccc45)c(CN4CCOCC4)c(=O)n3c2C(=O)O)c1
